The record followed here is article PMC5908784, “Extracellular loops 2 and 3 of the calcitonin receptor selectively modify agonist binding and efficacy” (Biochemical Pharmacology, 2018).

Molecules are shown by their SMILES. Substitutions are numbered along the chain they refer to. Where a SMILES comes first, the peptide text is derived from it. Bridges are numbered along the chain shown (N, C = ends).

What all share (test): Heterologous whole cell competition binding
Conditions in all cases: heterologous competition of 125I-sCT(8-32), whole cells, mean ± S.E.M., SEM

One assay deals with T1, hCTR E294A (Homo sapiens, UniProt P30988, E294A).
T1 construct: c-Myc (N); expressed in transfected cells
T1 sequence (P30988 25-474 E294A): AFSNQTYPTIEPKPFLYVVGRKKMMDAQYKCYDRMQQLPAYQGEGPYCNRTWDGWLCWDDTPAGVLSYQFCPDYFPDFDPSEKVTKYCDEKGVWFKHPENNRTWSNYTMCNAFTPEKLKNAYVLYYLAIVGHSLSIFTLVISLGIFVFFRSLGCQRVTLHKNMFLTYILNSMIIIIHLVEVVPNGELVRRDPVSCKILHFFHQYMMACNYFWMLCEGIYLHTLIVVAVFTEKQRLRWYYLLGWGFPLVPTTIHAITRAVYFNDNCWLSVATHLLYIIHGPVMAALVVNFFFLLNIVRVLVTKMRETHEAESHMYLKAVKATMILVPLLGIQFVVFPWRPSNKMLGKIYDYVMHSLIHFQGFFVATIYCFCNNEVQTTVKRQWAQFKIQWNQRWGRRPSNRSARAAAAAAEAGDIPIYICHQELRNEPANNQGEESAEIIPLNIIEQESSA
As for the experimental part: (§1) Following overnight incubation non-bound ligand was removed and radioactivity was determined using a gamma counter.
(§2) Data were corrected for radioligand occupancy using the Cheng-Prusoff equation in Prism; as such data are reported as pKi. Emax and EC50 were estimated from concentration-response curves using with a 3-parameter logistic equation in Prism (v7). These values are a composite of functional affinity, efficacy and stimulus response coupling. […] Significance was accepted at P < 0.05.

Another assay has as its target T2, hCTR F359A (Homo sapiens, UniProt P30988, F359A).
T2 construct: expressed in transfected cells
T2 sequence (P30988 25-474 F359A): T1 sequence (P30988 25-474 E294A) with A270E, F335A
The protocol: as §1, §2

Another assay addresses T3, hCTR M367A (Homo sapiens, UniProt P30988, M367A).
T3 construct: c-Myc (N); expressed in transfected cells
T3 sequence (P30988 25-474 M367A): T1 sequence (P30988 25-474 E294A) with A270E, M343A
The protocol:
as §1, §2

The target in a further assay is T4, hCTR Y284A (Homo sapiens, UniProt P30988, Y284A).
T4 construct: expressed in transfected cells
T4 sequence (P30988 25-474 Y284A): T1 sequence (P30988 25-474 E294A) with Y260A, A270E
The protocol: as §1, §2

The next assay addresses T5, hCTR Y299A (Homo sapiens, UniProt P30988, Y299A).
T5 construct: c-Myc (N); expressed in transfected cells
T5 sequence (P30988 25-474 Y299A): T1 sequence (P30988 25-474 E294A) with A270E, Y275A
As for the experimental part:
as §1, §2

In general, Ki refers to a dissociation constant, usually derived from enzyme kinetics or from competition with a known ligand. Turning to `CSCC[C@H](NC(=O)CNC(=O)[C@H](CO)NC(=O)[C@H](Cc1ccccc1)NC(=O)[C@H](CCCNC(=N)N)NC(=O)[C@H](Cc1c[nH]cn1)NC(=O)[C@H](Cc1ccccc1)NC(=O)[C@H](CC(N)=O)NC(=O)[C@H](CC(N)=O)NC(=O)[C@H](CC(C)C)NC(=O)[C@H](CC(N)=O)NC(=O)[C@H](CCCNC(=N)N)NC(=O)[C@H](Cc1c[nH]c2ccccc12)NC(=O)[C@H](Cc1ccc(O)cc1)NC(=O)[C@H](C)NC(=O)[C@H](CO)NC(=O)[C@H](CC(C)C)NC(=O)[C@@H](NC(=O)[C@@H]1CSSC[C@H](N)C(=O)N[C@@H](CO)C(=O)N[C@@H](CC(N)=O)C(=O)N[C@@H](CC(C)C)C(=O)N[C@@H](CO)C(=O)N[C@@H]([C@@H](C)O)C(=O)N1)C(C)C)C(=O)NCC(=O)N[C@@H](Cc1ccccc1)C(=O)NCC(=O)N1CCC[C@H]1C(=O)N[C@@H](CCC(=O)O)C(=O)N[C@H](C(=O)N1CCC[C@H]1C(N)=O)[C@@H](C)O` [pCT] (H-CSNLSTCVLSAYWRNLNNFHRFSGMGFGPETP-NH2; disulfide 1-7), the Ki on hCTR E294A is 11.7 nM; at hCTR F359A, 74.1 nM; on hCTR M367A, 21.4 nM; on hCTR Y284A, 14.5 nM; on hCTR Y299A, 46.8 nM.
